Tests used:
[1] = Effect of food on oral absorption; assay type: in vivo, human; settings: for mean AUC0-24 with food compared to fasted state / mean Cmax with food compared to fasted state: 150 mg multiple doses, middle-aged and elderly females
[2] = human, in vivo
men and women with OAB = experiment: Phase 2b efficacy study in men and women with OAB; assay type: in vivo, human; settings: for Micturitions, change from baseline in average number of micturitions, difference in LS means / Total incontinence, change from baseline in average number of episodes, difference in LS means / Urgency Episodes, change from baseline in average number of episodes, difference in LS means / Urgency incontinence, change from baseline in average number of episodes, difference in LS means / Volume voided, change from baseline in average volume per void over one diary day, difference in LS means: week 8; for Change from baseline in volume voided per micturition, difference from placebo in LS means: Week 8; for Total incontinence episodes, change from baseline Week 8, mean / Total incontinence episodes, daily number, Week 8 mean / Total incontinence episodes, difference from placebo Week 8, difference in LS means / Urgency incontinence episodes, change from baseline Week 8, mean / Urgency incontinence episodes, daily number, Week 8 mean / Urgency incontinence episodes, difference from placebo Week 8, difference in LS means: OAB wet subjects
From the text: Part 2 was designed to continue to assess the safety and efficacy of concomitant dosing. […] Subjects in both Part 1 and Part 2 had the option of enrolling in a 1-year extension. Participants were required to keep a voiding diary, recording the occurrence of each strong urge, total incontinence, and urge incontinence episode. Efficacy data for Part 1 and Part 2 are summarized herein.
The total number of urgency incontinence episodes must have exceeded the total number of stress incontinence episodes for all subjects.
Conversely, a dose dependent effect on urge incontinence or total incontinence was not observed.

[3] = 50 mg with high-fat meal, non-Japanese young males
[4] = 50 mg with standard Japanese breakfast, Japanese young males
[5] = 150 mg multiple doses with food, middle-aged females, Day 14
[6] = multiple dose 150 mg, day 14, non-Japanese middle-aged females, fasted

O=C(Nc1ccc(C[C@@H]2CC[C@H]([C@H](O)c3ccccc3)N2)cc1)[C@@H]1CCc2nccc(=O)n21 [Vibegron, (6S)—N-[4-[[(2S,5R)-5-[(R)-hydroxy(phenyl)methyl]pyrrolidin-2-yl]methyl]phenyl]-4-oxo-7,8-dihydro-6H-pyrrolo[1,2-a]pyrimidine-6-carboxamide]
delay in Tmax vs fasted [1, 3]: ~1 h
reduction in AUC0-inf vs fasted [1, 3]: 46%
reduction in Cmax vs fasted [1, 3]: 67%
reduction in AUC0-inf vs fasted [1, 4]: 37%
reduction in Cmax vs fasted [1, 4]: 52%
reduction in mean AUC0-24 hr vs fasted [1, 5]: 20%
reduction in mean Cmax vs fasted [1, 5]: 47%
mean AUC0-24 with food compared to fasted state ([1]; Day 1): ~42%
mean Cmax with food compared to fasted state ([1]; Day 1): 59%
mean AUC0-24 with food compared to fasted state ([1]; Day 14): ~20%
mean Cmax with food compared to fasted state ([1]; Day 14): 43%
AUC0-24 [1, 6]: 3180 ± 925 ng·h/mL
Cmax [1, 6]: 346 ± 139 ng/mL
Ctrough [1, 6]: 62.7 ± 12.4 ng/mL
dose recovered in feces [2]: approximately 59%
dose recovered in urine [2]: ~20%
Micturitions, change from baseline in average number of micturitions, difference in LS means (men and women with OAB; 50 mg - Placebo): −0.64
Total incontinence, change from baseline in average number of episodes, difference in LS means (men and women with OAB; 50 mg - Placebo): −0.60
Urgency Episodes, change from baseline in average number of episodes, difference in LS means (men and women with OAB; 50 mg - Placebo): −0.76
Urgency incontinence, change from baseline in average number of episodes, difference in LS means (men and women with OAB; 50 mg - Placebo): −0.72
Volume voided, change from baseline in average volume per void over one diary day, difference in LS means (men and women with OAB; 50 mg - Placebo): 29.1 mL
Micturitions, change from baseline in average number of micturitions, difference in LS means (men and women with OAB; 100 mg - 50 mg): −0.27
Total incontinence, change from baseline in average number of episodes, difference in LS means (men and women with OAB; 100 mg - 50 mg): 0.02
Urgency Episodes, change from baseline in average number of episodes, difference in LS means (men and women with OAB; 100 mg - 50 mg): −0.48
Urgency incontinence, change from baseline in average number of episodes, difference in LS means (men and women with OAB; 100 mg - 50 mg): 0.01
Volume voided, change from baseline in average volume per void over one diary day, difference in LS means (men and women with OAB; 100 mg - 50 mg): -5.69 mL
Micturitions, change from baseline in average number of micturitions, difference in LS means (men and women with OAB; 100 mg - Placebo): −0.91
Total incontinence, change from baseline in average number of episodes, difference in LS means (men and women with OAB; 100 mg - Placebo): −0.58
Urgency Episodes, change from baseline in average number of episodes, difference in LS means (men and women with OAB; 100 mg - Placebo): −1.24
Urgency incontinence, change from baseline in average number of episodes, difference in LS means (men and women with OAB; 100 mg - Placebo): −0.71
Volume voided, change from baseline in average volume per void over one diary day, difference in LS means (men and women with OAB; 100 mg - Placebo): 23.4 mL
Micturitions, change from baseline Week 8, mean (men and women with OAB; vibegron 3 mg): −1.56
Micturitions, daily number, Week 8 mean (men and women with OAB; vibegron 3 mg): 9.35
Micturitions, difference from placebo Week 8, difference in LS means (men and women with OAB; vibegron 3 mg): −0.46
Urgency episodes, change from baseline Week 8, mean (men and women with OAB; vibegron 3 mg): −1.69
Urgency episodes, daily number, Week 8 mean (men and women with OAB; vibegron 3 mg): 4.68
Urgency episodes, difference from placebo Week 8, difference in LS means (men and women with OAB; vibegron 3 mg): −0.18
Change from baseline in volume voided per micturition, difference from placebo in LS means (men and women with OAB; vibegron 3 mg once daily): 15.99 mL
Total incontinence episodes, change from baseline Week 8, mean (men and women with OAB; vibegron 3 mg): −1.56
Total incontinence episodes, daily number, Week 8 mean (men and women with OAB; vibegron 3 mg): 1.38
Total incontinence episodes, difference from placebo Week 8, difference in LS means (men and women with OAB; vibegron 3 mg): −0.18
Urgency incontinence episodes, change from baseline Week 8, mean (men and women with OAB; vibegron 3 mg): −1.38
Urgency incontinence episodes, daily number, Week 8 mean (men and women with OAB; vibegron 3 mg): 1.21
Urgency incontinence episodes, difference from placebo Week 8, difference in LS means (men and women with OAB; vibegron 3 mg): −0.28
Micturitions, change from baseline Week 8, mean (men and women with OAB; vibegron 15 mg): −1.71
Micturitions, daily number, Week 8 mean (men and women with OAB; vibegron 15 mg): 9.53
Micturitions, difference from placebo Week 8, difference in LS means (men and women with OAB; vibegron 15 mg): −0.45
Urgency episodes, change from baseline Week 8, mean (men and women with OAB; vibegron 15 mg): −2.35
Urgency episodes, daily number, Week 8 mean (men and women with OAB; vibegron 15 mg): 4.42
Urgency episodes, difference from placebo Week 8, difference in LS means (men and women with OAB; vibegron 15 mg): −0.67
Change from baseline in volume voided per micturition, difference from placebo in LS means (men and women with OAB; vibegron 15 mg once daily): 28.23 mL
Total incontinence episodes, change from baseline Week 8, mean (men and women with OAB; vibegron 15 mg): −1.99
Total incontinence episodes, daily number, Week 8 mean (men and women with OAB; vibegron 15 mg): 1.31
Total incontinence episodes, difference from placebo Week 8, difference in LS means (men and women with OAB; vibegron 15 mg): −0.48
Urgency incontinence episodes, change from baseline Week 8, mean (men and women with OAB; vibegron 15 mg): −1.81
Urgency incontinence episodes, daily number, Week 8 mean (men and women with OAB; vibegron 15 mg): 1.12
Urgency incontinence episodes, difference from placebo Week 8, difference in LS means (men and women with OAB; vibegron 15 mg): −0.57
Micturitions, change from baseline Week 8, mean (men and women with OAB; vibegron 50 mg): −1.87
Micturitions, daily number, Week 8 mean (men and women with OAB; vibegron 50 mg): 9.05
Micturitions, difference from placebo Week 8, difference in LS means (men and women with OAB; vibegron 50 mg): −0.64
Urgency episodes, change from baseline Week 8, mean (men and women with OAB; vibegron 50 mg): −2.36
Urgency episodes, daily number, Week 8 mean (men and women with OAB; vibegron 50 mg): 3.71
Urgency episodes, difference from placebo Week 8, difference in LS means (men and women with OAB; vibegron 50 mg): −0.76
Change from baseline in volume voided per micturition, difference from placebo in LS means (men and women with OAB; vibegron 50 mg once daily): 29.05 mL
Total incontinence episodes, change from baseline Week 8, mean (men and women with OAB; vibegron 50 mg): −2.02
Total incontinence episodes, daily number, Week 8 mean (men and women with OAB; vibegron 50 mg): 1.02
Total incontinence episodes, difference from placebo Week 8, difference in LS means (men and women with OAB; vibegron 50 mg): −0.60
Urgency incontinence episodes, change from baseline Week 8, mean (men and women with OAB; vibegron 50 mg): −1.90
Urgency incontinence episodes, daily number, Week 8 mean (men and women with OAB; vibegron 50 mg): 0.86
